In patent US20230008368A1, “IMIDAZOQUINOLINE SUBSTITUTED PHOSPHORIC ESTER AGONIST, AND PREPARATION THEREFOR AND APPLICATION THEREOF” (SUZHOU ZELGEN BIOPHARMACEUTICALS CO., LTD., priority 2019, published 2023):

Experiments:
[1] = cytotoxicity, cell viability by CellTiter-Glo; type: cell-based, human; conditions: human, HEK-Blue hTLR cells, cultured 1 day
Experimental: (§1) The compound was diluted with 1:3 series with DMSO for 9 concentration points, duplicated wells, and added to 96-well plate with Echo.
(§2) The HEK-Blue™ hTLR cells were suspended in the culture medium and then seeded into a 96-well plate containing the compound at a density of 50,000 cells/well. Cells were cultured at 5% CO2 and 37° C. for 1 day. The final concentration of DMSO in the cell culture medium was 0.5%.
According to the CellTiter-Glo instructions, the cell viability was measured, and the Luminescence signal value was read by the microplate reader, which was used to calculate the cytotoxicity of the compound.
(§3) The EC50 and CC50 values of the compound were calculated by GraphPad Prism software, and the fitting curve was plotted.

hTLR8 = target: T1, hTLR8 (Homo sapiens, UniProt Q9NR97); experiment: agonistic activity on hTLR8, HEK-Blue hTLR cells, SEAP reporter (QUANTI-Blue); type: cell-based; conditions: HEK-Blue hTLR cells, SEAP reporter, OD650, cultured 1 day; read-out: TLR 8 EC50
T1 construct: expressed in transfected cells; host or cells: HEK-Blue hTLR cells
T1 sequence (Q9NR97 27-1041): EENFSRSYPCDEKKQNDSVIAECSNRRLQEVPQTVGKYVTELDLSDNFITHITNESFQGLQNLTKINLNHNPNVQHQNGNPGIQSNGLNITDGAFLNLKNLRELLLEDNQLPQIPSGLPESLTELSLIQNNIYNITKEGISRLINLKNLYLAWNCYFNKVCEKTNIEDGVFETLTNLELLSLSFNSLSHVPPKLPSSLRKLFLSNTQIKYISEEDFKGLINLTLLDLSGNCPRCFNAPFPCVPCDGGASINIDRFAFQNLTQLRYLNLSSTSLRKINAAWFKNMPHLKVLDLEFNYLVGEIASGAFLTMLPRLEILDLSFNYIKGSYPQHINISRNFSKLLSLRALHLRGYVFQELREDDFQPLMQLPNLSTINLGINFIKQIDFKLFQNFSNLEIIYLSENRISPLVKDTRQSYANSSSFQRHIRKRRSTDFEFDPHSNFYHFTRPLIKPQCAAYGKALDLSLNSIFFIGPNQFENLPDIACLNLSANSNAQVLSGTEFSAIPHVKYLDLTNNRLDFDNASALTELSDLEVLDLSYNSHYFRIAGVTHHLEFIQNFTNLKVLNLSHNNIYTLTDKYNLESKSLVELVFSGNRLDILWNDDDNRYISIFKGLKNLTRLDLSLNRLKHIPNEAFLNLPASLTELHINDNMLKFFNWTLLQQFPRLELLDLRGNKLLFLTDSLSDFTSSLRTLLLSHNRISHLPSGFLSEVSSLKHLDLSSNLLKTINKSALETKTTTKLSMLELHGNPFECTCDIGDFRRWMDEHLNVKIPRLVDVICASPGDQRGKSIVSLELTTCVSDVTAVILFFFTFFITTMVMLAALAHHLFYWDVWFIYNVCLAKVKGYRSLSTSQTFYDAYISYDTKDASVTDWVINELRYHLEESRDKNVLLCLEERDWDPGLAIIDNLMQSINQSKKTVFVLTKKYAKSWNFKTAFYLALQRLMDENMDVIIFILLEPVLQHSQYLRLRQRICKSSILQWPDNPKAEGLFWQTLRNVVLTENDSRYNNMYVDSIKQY
Experimental: Experiments on the agonistic activity of TLR7 and TLR8 by the compounds in vitro
as §1, §2
20 uL cell culture supernatant was taken, according to the QUANTI-Blue instructions, the reporter gene SEAP in the supernatant was detected, and the OD650 signal value was read with a microplate reader to calculate the agonist activity of the compound on the hTLR7 and hTLR8.
as §3

Row | Compound | CC50 at 1 day [1] [µM] | EC50 (hTLR8) [µM]
1 | CCOCc1nc2c(N)nc3ccccc3c2n1C[C@@H](C)O[P@](=O)(N[C@@H](C)C(=O)OC(C)C)Oc1ccc2ccccc2c1 (single isomer, unassigned) [Example 6B] | > 30 | 0.023
2 | CCOCc1nc2c(N)nc3ccccc3c2n1C[C@@H](C)O[P@@](=O)(N[C@@H](C)C(=O)OC(C)C)Oc1ccccc1C (single isomer, unassigned) [Example 7A] | > 30 | 0.213
3 | CCOCc1nc2c(N)nc3ccccc3c2n1C[C@@H](C)O[P@](=O)(N[C@@H](C)C(=O)OC(C)C)Oc1ccccc1C (single isomer, unassigned) [Example 7B] | > 30 | 0.041
4 | CCOCc1nc2c(N)nc3ccccc3c2n1C[C@@H](C)O[P@@](=O)(N[C@@H](C)C(=O)OC(C)C)Oc1cccc(C)c1 (single isomer, unassigned) [Example 8A] | > 30 | 0.036
5 | CCOCc1nc2c(N)nc3ccccc3c2n1C[C@@H](C)O[P@](=O)(N[C@@H](C)C(=O)OC(C)C)Oc1cccc(C)c1 (single isomer, unassigned) [Example 8B] | > 30 | 0.065
6 | CCOCc1nc2c(N)nc3ccccc3c2n1C[C@@H](C)O[P@](=O)(N[C@@H](C)C(=O)OC(C)C)Oc1ccc(C)cc1 (single isomer, unassigned) [Example 9B] | > 30 | 0.071
7 | CCOCc1nc2c(N)nc3ccccc3c2n1C[C@@H](C)O[P@@](=O)(N[C@@H](C)C(=O)OC(C)C)Oc1ccccc1Cl (single isomer, unassigned) [Example 10A] | > 30 | 0.034
8 | CCOCc1nc2c(N)nc3ccccc3c2n1C[C@@H](C)O[P@](=O)(N[C@@H](C)C(=O)OC(C)C)Oc1ccccc1Cl (single isomer, unassigned) [Example 10B] | > 30 | 0.013
9 | CCOCc1nc2c(N)nc3ccccc3c2n1C[C@@H](C)O[P@](=O)(N[C@@H](C)C(=O)OC(C)C)Oc1cccc(Cl)c1 (single isomer, unassigned) [Example 11B] | > 30 | 0.071
10 | CCOCc1nc2c(N)nc3ccccc3c2n1C[C@@H](C)O[P@](=O)(N[C@@H](C)C(=O)OC(C)C)Oc1ccc(Cl)cc1 (single isomer, unassigned) [Example 12B] | > 30 | 0.049
11 | CCOCc1nc2c(N)nc3ccccc3c2n1C[C@@H](C)O[P@@](=O)(N[C@H](C)C(=O)OC(C)C)Oc1ccccc1 (single isomer, unassigned) [Example 13A] | > 30 | 0.764
12 | CCOCc1nc2c(N)nc3ccccc3c2n1C[C@@H](C)O[P@](=O)(N[C@H](C)C(=O)OC(C)C)Oc1ccccc1 (single isomer, unassigned) [Example 13B] | > 30 | 1.85
13 | CCOCc1nc2c(N)nc3ccccc3c2n1C[C@@H](C)O[P@](=O)(N[C@@H](C)C(=O)OC(C)(C)C)Oc1ccccc1 (single isomer, unassigned) [Example 14B] | > 30 | 1.29
14 | CCOCc1nc2c(N)nc3ccccc3c2n1C[C@@H](C)O[P@@](=O)(N[C@@H](C)C(=O)OC)Oc1ccccc1 (single isomer, unassigned) [Example 15A] | > 30 | 0.068
15 | CCOCc1nc2c(N)nc3ccccc3c2n1C[C@@H](C)O[P@](=O)(N[C@@H](C)C(=O)OC)Oc1ccccc1 (single isomer, unassigned) [Example 15B] | > 30 | 0.048
16 | CCOCc1nc2c(N)nc3ccccc3c2n1C[C@@H](C)O[P@](=O)(N[C@@H](C)C(=O)OCc1ccccc1)Oc1ccccc1 (single isomer, unassigned) [Example 16B] | > 30 | 0.0115
17 | CCOCc1nc2c(N)nc3ccccc3c2n1C[C@@H](C)O[P@](=O)(N[C@@H](C)C(=O)OC(C)(C)C)Oc1ccc(C)cc1 (single isomer, unassigned) [Example 17B] | > 30 | 2.92
18 | CCOCc1nc2c(N)nc3ccccc3c2n1C[C@@H](C)O[P@](=O)(N[C@@H](C)C(=O)OC(C)(C)C)Oc1ccc(OC)cc1 (single isomer, unassigned) [Example 18B] | > 30 | 2.45
19 | CCOCc1nc2c(N)nc3ccccc3c2n1C[C@@H](C)O[P@](=O)(N[C@@H](C)C(=O)OC(C)(C)C)Oc1ccc(Cl)cc1 (single isomer, unassigned) [Example 19B] | > 30 | 2.54
20 | CCOCc1nc2c(N)nc3ccccc3c2n1C[C@@H](C)OP(=O)(N[C@@H](C)C(F)(F)F)Oc1ccccc1 (single isomer, unassigned) [Example 24A] | – | > 30
21 | CCOCc1nc2c(N)nc3ccccc3c2n1C[C@@H](C)OP(=O)(N[C@H](C(=O)OC(C)(C)C)C(C)C)Oc1ccc(Cl)cc1 (stereo partly shown) [Example 22] | – | 1.82
22 | CCOCc1nc2c(N)nc3ccccc3c2n1C[C@@H](C)O[P@@](=O)(N[C@@H](C)C(C)C)Oc1ccc(Cl)cc1 [Example 23A, (R)-1-(4-amino-2-(ethoxymethyl)-1H-imidazo [4,5-c]quinolin-1-yl) propan-2-yl (4-chlorophenyl) (S)—((S)-3-methylbutan-2-yl) phosphoramide] | – | > 30
23 | CCOCc1nc2c(N)nc3ccccc3c2n1C[C@@H](C)O[P@](=O)(N[C@@H](C)C(C)C)Oc1ccc(Cl)cc1 [Example 23B, (R)-1-(4-amino-2-(ethoxymethyl)-1H-imidazo [4,5-c]quinolin-1-yl) propan-2-yl (4-chlorophenyl) (R)—((S)-3-methylbutan-2-yl) phosphoramide] | – | 18
24 | CCOCc1nc2c(N)nc3ccccc3c2n1C[C@@H](C)O[P@](=O)(N[C@@H](C)C(F)(F)F)Oc1ccc(Cl)cc1 [Example 24B, (R)-1-(4-amino-2-(ethoxymethyl)-1H-imidazo [4,5-c]quinolin-1-yl) propan-2-yl (4-chlorophenyl) (R)—((S)-1,1,1-trifluoropropan-2-yl) phosphoramide] | – | > 30
25 | CCOCc1nc2c(N)nc3ccccc3c2n1C[C@@H](C)O[P@@](=O)(N[C@@H](C)COC)Oc1ccc(Cl)cc1 [Example 25A, (R)-1-(4-amino-2-(ethoxymethyl)-1H-imidazo [4,5-c]quinolin-1-yl) propan-2-yl (4-chlorophenyl) (S)—((S)-1-methoxypropan-2-yl) phosphoramide] | – | > 30
26 | CCOCc1nc2c(N)nc3ccccc3c2n1C[C@@H](C)O[P@](=O)(N[C@@H](C)COC)Oc1ccc(Cl)cc1 [Example 25B, (R)-1-(4-amino-2-(ethoxymethyl)-1H-imidazo [4,5-c]quinolin-1-yl) propan-2-yl (4-chlorophenyl) (R)—((S)-1-methoxypropan-2-yl) Phosphoramide] | – | > 30
27 | CCOCc1nc2c(N)nc3ccccc3c2n1CC(C)(C)O [Example R848, reference compound] | > 10 | –
